Broadly, the inhibition is the relative decrease from the control value, in per cent.

Common to all, as to assay: HotSpot kinase profiling
Format in all cases: biochemical

Test [1] concerns the target T1, MAPKAPK5/PRAK (Homo sapiens, UniProt Q8IW41).
T1 construct: purchased Reaction Biology Corp
T1 sequence (Q8IW41 1-473): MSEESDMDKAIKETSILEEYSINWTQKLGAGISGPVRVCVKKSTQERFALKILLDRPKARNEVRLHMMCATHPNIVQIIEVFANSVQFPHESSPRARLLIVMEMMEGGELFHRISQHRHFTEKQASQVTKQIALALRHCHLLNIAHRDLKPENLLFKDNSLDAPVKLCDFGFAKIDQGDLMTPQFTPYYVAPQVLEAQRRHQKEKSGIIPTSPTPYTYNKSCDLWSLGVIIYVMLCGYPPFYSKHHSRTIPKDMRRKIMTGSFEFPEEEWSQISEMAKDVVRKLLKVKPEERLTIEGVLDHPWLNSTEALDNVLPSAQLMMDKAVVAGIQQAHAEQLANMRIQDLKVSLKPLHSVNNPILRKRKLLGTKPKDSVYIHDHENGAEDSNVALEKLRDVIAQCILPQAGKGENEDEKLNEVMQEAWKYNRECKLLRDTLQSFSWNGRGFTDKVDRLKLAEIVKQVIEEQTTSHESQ
An outline of the steps: (§1)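 Radio-isotope P81 filtration format. Substrate + required cofactors in reaction buffer, kinase added, 2 h RT. Stop, wash with 0.1% phosphoric acid, detect. % inhibition vs DMSO; mean of duplicates where repeated.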

The target in test [2] is T2, LATS1 (Homo sapiens, UniProt O95835).
T2 construct: purchased Reaction Biology Corp
T2 sequence (O95835 1-1130): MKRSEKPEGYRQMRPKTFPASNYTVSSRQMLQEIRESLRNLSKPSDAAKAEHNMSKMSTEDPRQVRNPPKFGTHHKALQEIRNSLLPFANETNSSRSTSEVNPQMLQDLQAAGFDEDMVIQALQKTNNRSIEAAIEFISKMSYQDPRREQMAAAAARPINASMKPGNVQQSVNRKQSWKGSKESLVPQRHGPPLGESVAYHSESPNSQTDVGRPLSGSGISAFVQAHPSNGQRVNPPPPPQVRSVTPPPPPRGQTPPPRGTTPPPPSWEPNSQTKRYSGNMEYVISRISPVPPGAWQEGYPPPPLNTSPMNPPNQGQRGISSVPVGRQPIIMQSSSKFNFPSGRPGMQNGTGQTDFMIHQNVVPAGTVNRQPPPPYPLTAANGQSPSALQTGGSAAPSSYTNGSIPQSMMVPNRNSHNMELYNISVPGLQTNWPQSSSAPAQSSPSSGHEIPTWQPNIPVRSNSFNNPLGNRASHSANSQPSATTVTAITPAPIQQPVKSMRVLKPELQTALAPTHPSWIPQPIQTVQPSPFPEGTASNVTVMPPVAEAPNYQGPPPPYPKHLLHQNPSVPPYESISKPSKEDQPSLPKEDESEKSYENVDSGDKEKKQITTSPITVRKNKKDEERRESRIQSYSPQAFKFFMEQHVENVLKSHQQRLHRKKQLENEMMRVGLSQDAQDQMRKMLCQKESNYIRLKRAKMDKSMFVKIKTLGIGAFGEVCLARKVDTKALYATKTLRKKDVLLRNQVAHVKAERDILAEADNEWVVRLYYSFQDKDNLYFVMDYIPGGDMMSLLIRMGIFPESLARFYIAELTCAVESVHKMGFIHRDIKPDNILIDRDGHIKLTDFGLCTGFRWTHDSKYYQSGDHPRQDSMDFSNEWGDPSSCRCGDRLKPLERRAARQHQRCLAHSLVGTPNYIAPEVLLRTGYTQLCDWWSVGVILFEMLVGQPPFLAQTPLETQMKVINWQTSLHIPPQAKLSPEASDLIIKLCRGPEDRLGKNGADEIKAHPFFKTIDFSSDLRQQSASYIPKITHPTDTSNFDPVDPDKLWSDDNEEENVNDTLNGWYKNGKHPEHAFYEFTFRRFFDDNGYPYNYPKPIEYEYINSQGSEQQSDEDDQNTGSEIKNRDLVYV
An outline of the steps: as §1

In test [3] the target is T3, JNK1 (Homo sapiens, UniProt P45983).
T3 construct: purchased Reaction Biology Corp
T3 sequence (P45983 whole entry): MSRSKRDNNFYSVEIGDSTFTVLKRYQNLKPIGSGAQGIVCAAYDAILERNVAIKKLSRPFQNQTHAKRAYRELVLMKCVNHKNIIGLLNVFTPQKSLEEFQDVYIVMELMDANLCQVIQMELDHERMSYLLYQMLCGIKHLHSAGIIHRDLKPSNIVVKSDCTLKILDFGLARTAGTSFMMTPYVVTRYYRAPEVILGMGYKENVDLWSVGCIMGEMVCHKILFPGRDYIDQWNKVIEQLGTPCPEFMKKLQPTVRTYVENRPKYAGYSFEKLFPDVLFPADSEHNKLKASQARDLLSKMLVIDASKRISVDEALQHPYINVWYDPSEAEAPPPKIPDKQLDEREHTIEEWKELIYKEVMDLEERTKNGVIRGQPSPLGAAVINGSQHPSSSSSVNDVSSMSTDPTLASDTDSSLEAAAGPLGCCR
An outline of the steps: as §1

Test [4] deals with T4, RON/MST1R (Homo sapiens, UniProt Q04912).
T4 construct: purchased Reaction Biology Corp
T4 sequence (Q04912 25-1400): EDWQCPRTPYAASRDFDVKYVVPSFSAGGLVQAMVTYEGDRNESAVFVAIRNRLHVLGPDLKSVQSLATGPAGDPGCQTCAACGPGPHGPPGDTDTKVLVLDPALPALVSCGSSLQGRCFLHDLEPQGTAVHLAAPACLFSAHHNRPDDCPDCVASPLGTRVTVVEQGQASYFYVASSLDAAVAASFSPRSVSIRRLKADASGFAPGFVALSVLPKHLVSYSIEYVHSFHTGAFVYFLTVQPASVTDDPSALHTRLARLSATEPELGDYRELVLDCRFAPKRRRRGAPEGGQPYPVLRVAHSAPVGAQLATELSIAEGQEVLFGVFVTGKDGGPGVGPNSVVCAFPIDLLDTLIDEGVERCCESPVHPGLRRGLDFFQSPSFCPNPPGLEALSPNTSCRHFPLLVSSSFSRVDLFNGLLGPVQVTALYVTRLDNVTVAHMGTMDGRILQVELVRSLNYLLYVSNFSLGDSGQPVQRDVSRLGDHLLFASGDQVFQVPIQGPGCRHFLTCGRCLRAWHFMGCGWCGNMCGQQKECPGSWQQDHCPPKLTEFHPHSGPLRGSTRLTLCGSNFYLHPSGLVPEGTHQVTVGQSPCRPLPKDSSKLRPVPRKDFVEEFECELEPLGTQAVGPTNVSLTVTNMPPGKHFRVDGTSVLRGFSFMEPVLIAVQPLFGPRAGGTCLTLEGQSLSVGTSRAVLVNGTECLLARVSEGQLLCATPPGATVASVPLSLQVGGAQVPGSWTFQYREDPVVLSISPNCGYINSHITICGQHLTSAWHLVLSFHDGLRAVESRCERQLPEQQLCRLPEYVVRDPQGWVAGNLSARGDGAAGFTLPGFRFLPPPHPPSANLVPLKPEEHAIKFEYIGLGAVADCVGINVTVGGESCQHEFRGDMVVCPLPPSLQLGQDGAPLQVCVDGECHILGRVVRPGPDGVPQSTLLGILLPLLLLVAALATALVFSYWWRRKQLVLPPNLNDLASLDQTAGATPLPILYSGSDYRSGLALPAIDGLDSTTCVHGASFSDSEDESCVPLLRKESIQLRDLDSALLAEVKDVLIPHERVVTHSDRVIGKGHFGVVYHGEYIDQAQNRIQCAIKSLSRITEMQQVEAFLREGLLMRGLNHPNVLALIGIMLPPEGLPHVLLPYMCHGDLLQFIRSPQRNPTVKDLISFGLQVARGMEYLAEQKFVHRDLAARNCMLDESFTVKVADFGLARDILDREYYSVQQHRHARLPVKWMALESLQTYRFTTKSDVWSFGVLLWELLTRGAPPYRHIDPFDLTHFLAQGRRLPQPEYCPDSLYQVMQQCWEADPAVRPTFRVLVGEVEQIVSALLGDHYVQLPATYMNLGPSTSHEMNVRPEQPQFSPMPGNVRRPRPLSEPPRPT
An outline of the steps:
as §1

Setting [5] is: read-out: % Enzyme Activity (relative to DMSO controls) Run 1.
[6] abbreviates: read-out: % Enzyme Activity (relative to DMSO controls) Run 2.

Like-named read-outs stand apart in the source and are kept apart here.

Take `C=CC(=O)Nc1cccc(Nc2nc(Nc3ccc(OCCOC)c(F)c3)ncc2F)c1` [Compound 2]: the inhibition at 3 µM was -11.6% in test [1], 10.3% in test [2], 12.1% in test [3] and -2.24% in test [4]. The remaining activity at 3 µM in test [1] (setting [5]) was determined as 110%; in test [1] (setting [6]) it was 113%; in test [2] (setting [5]), 89.5%; in test [2] (setting [6]), 89.8%; in test [3] (setting [5]), 88.1%; in test [3] (setting [6]), 87.7%. The remaining activity at 3 µM is 103% in test [4] (setting [5]) and 101% in test [4] (setting [6]).

The record behind these values is patent US9492471B2, “Methods of treating a disease or disorder associated with Bruton'S Tyrosine Kinase” (Celgene Avilomics Research, Inc., priority 2013, dated 2016).
